Results on 1 compound are retold here after article PMC5218480 (PLoS ONE, 2017).

The assay relates to MV-4-11 cells. Description: Gene expression microarray analysis (Affymetrix PrimeView) and GSEA. It counts as cell-based, human. Further details: RFU PODN (11730768_x_at) / Fold change /veh PODN (11730768_x_at) / RFU LINC00158 (11744669_a_at) / Fold change /veh LINC00158 (11744669_a_at) / RFU DUSP10 (11751237_a_at) / Fold change /veh DUSP10 (11751237_a_at) / RFU ID3 (11757404_x_at) / Fold change /veh ID3 (11757404_x_at) / RFU PLEKHG5 (11737974_s_at) / Fold change /veh PLEKHG5 (11737974_s_at) / RFU LRRC4B (11730491_at) / Fold change /veh LRRC4B (11730491_at) / RFU GIMAP4 (11747438_a_at) / Fold change /veh GIMAP4 (11747438_a_at) / RFU KRT8 (11758183_x_at) / Fold change /veh KRT8 (11758183_x_at) / RFU CNN1 (11734310_a_at) / Fold change /veh CNN1 (11734310_a_at) / RFU VPS37D (11726825_at) / Fold change /veh VPS37D (11726825_at) / RFU C10orf10 (11716522_x_at) / Fold change /veh C10orf10 (11716522_x_at) / RFU KIR2DL2 /// KIR2DL4 /// KIR2DL5A /// KIR2DL5B /// KIR2DS1 /// KIR2DS2 /// KIR2DS3 /// KIR2DS4 /// KIR3DL3 /// KIR3DL3 /// KIR3DS1 (11738374_at) / Fold change /veh KIR2DL2 /// KIR2DL4 /// KIR2DL5A /// KIR2DL5B /// KIR2DS1 /// KIR2DS2 /// KIR2DS3 /// KIR2DS4 /// KIR3DL3 /// KIR3DL3 /// KIR3DS1 (11738374_at) / RFU C1QL1 (11718748_at) / Fold change /veh C1QL1 (11718748_at) / RFU TMPRSS4 (11747572_a_at) / Fold change /veh TMPRSS4 (11747572_a_at) / RFU HAMP (11756126_x_at) / Fold change /veh HAMP (11756126_x_at) / RFU RNFT2 (11725882_a_at) / Fold change /veh RNFT2 (11725882_a_at) / RFU NR4A2 (11747474_a_at) / Fold change /veh NR4A2 (11747474_a_at) / RFU ABCC12 (11746883_a_at) / Fold change /veh ABCC12 (11746883_a_at) / RFU TMEM136 (11760407_x_at) / Fold change /veh TMEM136 (11760407_x_at) / RFU CLDN22 /// WWC2 (11732394_at) / Fold change /veh CLDN22 /// WWC2 (11732394_at) / RFU HLA-DPB1 (11760878_x_at) / Fold change /veh HLA-DPB1 (11760878_x_at) / RFU SPINT1 (11716480_a_at) / Fold change /veh SPINT1 (11716480_a_at) / RFU GAP43 (11754022_s_at) / Fold change /veh GAP43 (11754022_s_at) / RFU A4GNT (11735810_at) / Fold change /veh A4GNT (11735810_at) / RFU PRB3 (11715151_x_at) / Fold change /veh PRB3 (11715151_x_at) / RFU TUBB4B (11761932_at) / Fold change /veh TUBB4B (11761932_at) / RFU CAPN14 (11732068_a_at) / Fold change /veh CAPN14 (11732068_a_at) / RFU TMCC2 (11721928_a_at) / Fold change /veh TMCC2 (11721928_a_at) / RFU IRGQ (11745062_a_at) / Fold change /veh IRGQ (11745062_a_at) / RFU FAM174B (11720279_a_at) / Fold change /veh FAM174B (11720279_a_at) / RFU TMPRSS4 (11748680_a_at) / Fold change /veh TMPRSS4 (11748680_a_at) / RFU FAM212B (11763350_a_at) / Fold change /veh FAM212B (11763350_a_at) / RFU PLEKHG5 (11743358_a_at) / Fold change /veh PLEKHG5 (11743358_a_at) / RFU ZSCAN30 (11745921_a_at) / Fold change /veh ZSCAN30 (11745921_a_at) / RFU CMKLR1 (11741424_a_at) / Fold change /veh CMKLR1 (11741424_a_at) / RFU LOC101060620 /// MAPK8IP1 (11723275_at) / Fold change /veh LOC101060620 /// MAPK8IP1 (11723275_at) / RFU SPTSSB (11747773_x_at) / Fold change /veh SPTSSB (11747773_x_at) / RFU PRSS12 (11739890_at) / Fold change /veh PRSS12 (11739890_at) / RFU BIN1 (11741810_x_at) / Fold change /veh BIN1 (11741810_x_at) / RFU WNT11 (11732464_a_at) / Fold change /veh WNT11 (11732464_a_at) / RFU C10orf10 (11716521_a_at) / Fold change /veh C10orf10 (11716521_a_at) / RFU C5orf56 (11738089_at) / Fold change /veh C5orf56 (11738089_at) / RFU CYB561 (11721691_x_at) / Fold change /veh CYB561 (11721691_x_at) / RFU ANKRD19P (11752326_a_at) / Fold change /veh ANKRD19P (11752326_a_at) / RFU OR2T12 /// OR2T33 /// OR2T8 (11738714_s_at) / Fold change /veh OR2T12 /// OR2T33 /// OR2T8 (11738714_s_at) / RFU VCAN (11748164_a_at) / Fold change /veh VCAN (11748164_a_at) / RFU JSRP1 (11732532_at) / Fold change /veh JSRP1 (11732532_at) / RFU KRTAP10-11 (11738290_x_at) / Fold change /veh KRTAP10-11 (11738290_x_at) / RFU MYO3A (11730013_a_at) / Fold change /veh MYO3A (11730013_a_at) / RFU EBF3 (11725865_a_at) / Fold change /veh EBF3 (11725865_a_at) / RFU CAMK2N1 (11719241_x_at) / Fold change /veh CAMK2N1 (11719241_x_at) / RFU C5orf56 (11738088_a_at) / Fold change /veh C5orf56 (11738088_a_at) / RFU OLFML3 (11715873_a_at) / Fold change /veh OLFML3 (11715873_a_at) / RFU LOC100653217 /// NTM (11731650_a_at) / Fold change /veh LOC100653217 /// NTM (11731650_a_at) / RFU MAPK11 (11762145_a_at) / Fold change /veh MAPK11 (11762145_a_at) / RFU FIZ1 (11724087_x_at) / Fold change /veh FIZ1 (11724087_x_at) / RFU OASL (11726364_x_at) / Fold change /veh OASL (11726364_x_at) / RFU SOX15 (11748057_x_at) / Fold change /veh SOX15 (11748057_x_at) / RFU CD79A (11719716_a_at) / Fold change /veh CD79A (11719716_a_at) / RFU HIST1H1D (11736915_at) / Fold change /veh HIST1H1D (11736915_at) / RFU CASKIN2 (11723855_a_at) / Fold change /veh CASKIN2 (11723855_a_at) / RFU LOC730098 (11760151_x_at) / Fold change /veh LOC730098 (11760151_x_at) / RFU OR4N2 (11742367_at) / Fold change /veh OR4N2 (11742367_at) / RFU PRRT2 (11749266_a_at) / Fold change /veh PRRT2 (11749266_a_at) / RFU SNX32 (11753110_a_at) / Fold change /veh SNX32 (11753110_a_at) / RFU CDHR5 (11726645_a_at) / Fold change /veh CDHR5 (11726645_a_at) / RFU RCAN1 (11760418_a_at) / Fold change /veh RCAN1 (11760418_a_at) / RFU FAM167A (11723789_a_at) / Fold change /veh FAM167A (11723789_a_at) / RFU FAM26E (11764081_at) / Fold change /veh FAM26E (11764081_at) / RFU ISYNA1 (11749810_s_at) / Fold change /veh ISYNA1 (11749810_s_at) / RFU ACY1 (11761880_at) / Fold change /veh ACY1 (11761880_at) / RFU 11764098_at / Fold change /veh 11764098_at / RFU SAMD14 (11745864_x_at) / Fold change /veh SAMD14 (11745864_x_at) / RFU NPB (11741838_a_at) / Fold change /veh NPB (11741838_a_at) / RFU TMPRSS6 (11731388_a_at) / Fold change /veh TMPRSS6 (11731388_a_at) / RFU KRTAP10-2 (11738614_at) / Fold change /veh KRTAP10-2 (11738614_at) / RFU ARHGAP8 /// PRR5-ARHGAP8 (11727945_x_at) / Fold change /veh ARHGAP8 /// PRR5-ARHGAP8 (11727945_x_at) / RFU KRTAP5-7 /// NADSYN1 (11734609_at) / Fold change /veh KRTAP5-7 /// NADSYN1 (11734609_at) / RFU RASL12 (11751679_a_at) / Fold change /veh RASL12 (11751679_a_at) / RFU CDKN2B (11736163_a_at) / Fold change /veh CDKN2B (11736163_a_at) / RFU PRF1 (11729649_at) / Fold change /veh PRF1 (11729649_at) / RFU, ZNF638 /// ZNF638-IT1 / Fold change vs veh, ZNF638 /// ZNF638-IT1 / RFU, PANK3 / Fold change vs veh, PANK3 / RFU, SH3YL1 / Fold change vs veh, SH3YL1 / RFU, ZEB2 / Fold change vs veh, ZEB2 / RFU, NRIP1 / Fold change vs veh, NRIP1 / RFU, PTTG1IP / Fold change vs veh, PTTG1IP / RFU, CAPN2 / Fold change vs veh, CAPN2 / RFU, MED14 / Fold change vs veh, MED14 / RFU, SNORA58 / Fold change vs veh, SNORA58 / RFU, C1orf63 / Fold change vs veh, C1orf63 / RFU, LRRFIP1 / Fold change vs veh, LRRFIP1 / RFU, NDUFAF7 / Fold change vs veh, NDUFAF7 / RFU, SLC12A2 / Fold change vs veh, SLC12A2 / RFU, IBTK / Fold change vs veh, IBTK / RFU, ESF1 / Fold change vs veh, ESF1 / Fold change vs veh, TMEM50B / RFU, TAOK1 / Fold change vs veh, TAOK1 / RFU, ACBD3 / Fold change vs veh, ACBD3 / RFU, TMA16 / Fold change vs veh, TMA16 / RFU, RWDD3 / Fold change vs veh, RWDD3 / RFU, BCAT1 / Fold change vs veh, BCAT1 / RFU, EDEM3 / Fold change vs veh, EDEM3 / RFU, TMEM33 / Fold change vs veh, TMEM33 / RFU, WDR75 / Fold change vs veh, WDR75 / RFU, AHCTF1 / Fold change vs veh, AHCTF1 / RFU, TFRC / Fold change vs veh, TFRC / RFU, ZDHHC17 / Fold change vs veh, ZDHHC17 / RFU, NOM1 / Fold change vs veh, NOM1 / RFU, ARL8B / Fold change vs veh, ARL8B / RFU, ZBTB11 / Fold change vs veh, ZBTB11 / RFU, TAMM41 / Fold change vs veh, TAMM41 / RFU, KIAA1704 /// LOC100996395 / Fold change vs veh, KIAA1704 /// LOC100996395 / RFU, ING1 / Fold change vs veh, ING1 / RFU, TRMT61B / Fold change vs veh, TRMT61B / RFU, FUBP3 / Fold change vs veh, FUBP3 / RFU, TP53 / Fold change vs veh, TP53 / RFU, TNKS2 / Fold change vs veh, TNKS2 / RFU, ZFP14 / Fold change vs veh, ZFP14 / RFU, ACTR2 / Fold change vs veh, ACTR2 / RFU, PPP3R1 / Fold change vs veh, PPP3R1 / RFU, PIK3R1 / Fold change vs veh, PIK3R1 / RFU, HNRNPA1 / Fold change vs veh, HNRNPA1 / RFU, RNF170 / Fold change vs veh, RNF170 / RFU, ZNF28 / Fold change vs veh, ZNF28 / RFU, RNGTT / Fold change vs veh, RNGTT / RFU, OGT / Fold change vs veh, OGT / RFU, BRD1 / Fold change vs veh, BRD1 / RFU, MARS / Fold change vs veh, MARS / RFU, ZNF655 / Fold change vs veh, ZNF655 / RFU, FAHD1 / Fold change vs veh, FAHD1 / RFU, BDP1 / Fold change vs veh, BDP1 / RFU, LRRCC1 / Fold change vs veh, LRRCC1 / RFU, ARID1A / Fold change vs veh, ARID1A / RFU, ZNF146 / Fold change vs veh, ZNF146 / RFU, ZNF330 / Fold change vs veh, ZNF330 / RFU, GPN3 / Fold change vs veh, GPN3 / RFU, C9orf123 / Fold change vs veh, C9orf123 / RFU, N4BP2L2 / Fold change vs veh, N4BP2L2 / RFU, ARFIP1 / Fold change vs veh, ARFIP1 / RFU, FAM179B / Fold change vs veh, FAM179B / RFU, BCL10 / Fold change vs veh, BCL10 / RFU, UHRF1BP1L / Fold change vs veh, UHRF1BP1L / RFU, BET1 / Fold change vs veh, BET1 / RFU, CNOT2 / Fold change vs veh, CNOT2 / RFU, ZNF268 / Fold change vs veh, ZNF268 / Fold change vs veh, ZNF507 / RFU, DGCR2 / Fold change vs veh, DGCR2 / RFU, WDSUB1 / Fold change vs veh, WDSUB1 / Fold change vs veh, HSP90B1 /// MIR3652 / RFU, ADSS / Fold change vs veh, ADSS / RFU, GK / Fold change vs veh, GK / RFU, ZNF148 / Fold change vs veh, ZNF148 / RFU, TAF9 / Fold change vs veh, TAF9 / RFU, SLC1A5 / Fold change vs veh, SLC1A5 / RFU, SLMO2 / Fold change vs veh, SLMO2 / RFU, ABCC4 / Fold change vs veh, ABCC4 / RFU, LOC101060439 /// RAP1B / Fold change vs veh, LOC101060439 /// RAP1B / RFU, RFX7 / Fold change vs veh, RFX7 / RFU, GTPBP10 / Fold change vs veh, GTPBP10 / RFU, CNEP1R1 / Fold change vs veh, CNEP1R1 / RFU, BIVM-ERCC5 /// ERCC5 / Fold change vs veh, BIVM-ERCC5 /// ERCC5 / RFU, ILF3 / Fold change vs veh, ILF3 / RFU 11762660_at / Fold change /veh 11762660_at / RFU VCAN (11757783_s_at) / Fold change /veh VCAN (11757783_s_at) / RFU DDX43 (11728927_at) / Fold change /veh DDX43 (11728927_at) / RFU KRT8 (11758188_x_at) / Fold change /veh KRT8 (11758188_x_at) / RFU NKD1 (11759106_at) / Fold change /veh NKD1 (11759106_at) / RFU SRD5A1 (11742802_a_at) / Fold change /veh SRD5A1 (11742802_a_at) / RFU TPSAB1 /// TPSB2 (11721975_s_at) / Fold change /veh TPSAB1 /// TPSB2 (11721975_s_at) / RFU GSTM3 (11746129_a_at) / Fold change /veh GSTM3 (11746129_a_at) / RFU IL23R (11737362_x_at) / Fold change /veh IL23R (11737362_x_at) / RFU TMEM51 (11727254_a_at) / Fold change /veh TMEM51 (11727254_a_at) / RFU PIWIL2 (11732686_x_at) / Fold change /veh PIWIL2 (11732686_x_at) / RFU ORM1 (11744905_x_at) / Fold change /veh ORM1 (11744905_x_at) / RFU CCDC152 (11743942_at) / Fold change /veh CCDC152 (11743942_at) / RFU ECM1 (11717891_a_at) / Fold change /veh ECM1 (11717891_a_at) / RFU IL23R (11748794_a_at) / Fold change /veh IL23R (11748794_a_at) / RFU TNFAIP8L3 (11732012_x_at) / Fold change /veh TNFAIP8L3 (11732012_x_at) / RFU MBOAT4 (11741988_at) / Fold change /veh MBOAT4 (11741988_at) / RFU 11764193_at / Fold change /veh 11764193_at / RFU TMEM53 (11763286_at) / Fold change /veh TMEM53 (11763286_at) / RFU MAGEB2 (11727129_at) / Fold change /veh MAGEB2 (11727129_at) / RFU TMEM200A (11744735_a_at) / Fold change /veh TMEM200A (11744735_a_at) / RFU CCDC152 (11751479_a_at) / Fold change /veh CCDC152 (11751479_a_at) / RFU FAM211A (11726209_a_at) / Fold change /veh FAM211A (11726209_a_at) / RFU RGS16 (11746705_a_at) / Fold change /veh RGS16 (11746705_a_at) / RFU VCAN (11755009_s_at) / Fold change /veh VCAN (11755009_s_at) / RFU RHOB (11743442_s_at) / Fold change /veh RHOB (11743442_s_at) / RFU RGS16 (11720943_a_at) / Fold change /veh RGS16 (11720943_a_at) / RFU RGS16 (11720944_at) / Fold change /veh RGS16 (11720944_at) / RFU, VPS4B / Fold change vs veh, VPS4B / RFU, CREB1 / Fold change vs veh, CREB1 / RFU, DNAJC13 / Fold change vs veh, DNAJC13 / RFU, GNAQ / Fold change vs veh, GNAQ / RFU, CDK5R1 / Fold change vs veh, CDK5R1 / RFU, ZRANB3 / Fold change vs veh, ZRANB3 / RFU, CUL4A / Fold change vs veh, CUL4A / RFU, CCNY / Fold change vs veh, CCNY / RFU, UFL1 / Fold change vs veh, UFL1 / RFU, COG3 / Fold change vs veh, COG3 / RFU, DIAPH2 / Fold change vs veh, DIAPH2 / RFU, SKA2 / Fold change vs veh, SKA2 / RFU, AFF3 / Fold change vs veh, AFF3 / RFU, LMF1 / Fold change vs veh, LMF1 / RFU, IPO11 / Fold change vs veh, IPO11 / RFU, DFFB / Fold change vs veh, DFFB / RFU, FOXP1 / Fold change vs veh, FOXP1 / RFU, CARD8 / Fold change vs veh, CARD8 / RFU, STRN3 / Fold change vs veh, STRN3 / RFU, ADK / Fold change vs veh, ADK / RFU, RASSF2 / Fold change vs veh, RASSF2 / RFU, WIPF1 / Fold change vs veh, WIPF1 / RFU, LARP1B / Fold change vs veh, LARP1B / RFU, RASA1 / Fold change vs veh, RASA1 / RFU, RB1 / Fold change vs veh, RB1 / RFU, PPFIA1 / Fold change vs veh, PPFIA1 / RFU, MAT2A / Fold change vs veh, MAT2A / RFU, CCT5 / Fold change vs veh, CCT5 / RFU, WDR92 / Fold change vs veh, WDR92 / RFU, CUX1 / Fold change vs veh, CUX1 / RFU, TTC7A / Fold change vs veh, TTC7A / RFU, TMEM135 / Fold change vs veh, TMEM135 / RFU, DEPTOR / Fold change vs veh, DEPTOR / RFU, CPM / Fold change vs veh, CPM / RFU, DNAJB6 / Fold change vs veh, DNAJB6 / RFU, CACNA2D3 / Fold change vs veh, CACNA2D3 / RFU, DTX4 / Fold change vs veh, DTX4 / RFU, TFCP2 / Fold change vs veh, TFCP2 / RFU, GMCL1 /// GMCL1P1 / Fold change vs veh, GMCL1 /// GMCL1P1 / RFU, AEBP2 / Fold change vs veh, AEBP2 / RFU, SNHG1 /// SNORD22 /// SNORD25 /// SNORD26 /// SNORD27 /// SNORD28 /// SNORD29 /// SNORD31 / Fold change vs veh, SNHG1 /// SNORD22 /// SNORD25 /// SNORD26 /// SNORD27 /// SNORD28 /// SNORD29 /// SNORD31 / Fold change (Aza/veh), C12orf56 (ProbeSet 11735607_a_at) / Fold change (ACY-1035/veh), C12orf56 (ProbeSet 11735607_a_at) / Fold change (Aza/veh), FGFR1OP (ProbeSet 11751329_s_at) / Fold change (ACY-1035/veh), FGFR1OP (ProbeSet 11751329_s_at) / Fold change (Aza/veh), VPS36 (ProbeSet 11739960_a_at) / Fold change (ACY-1035/veh), VPS36 (ProbeSet 11739960_a_at) / RFU SYPL1 (11715823_x_at) / Fold change /veh SYPL1 (11715823_x_at) / RFU IGFBP7 (11715501_s_at) / Fold change /veh IGFBP7 (11715501_s_at) / RFU REEP3 (11722064_at) / Fold change /veh REEP3 (11722064_at) / RFU IGLL1 (11728026_x_at) / Fold change /veh IGLL1 (11728026_x_at): dose or concentration left out as unconfirmed. The note with it: ProbeSet 11740781_a_at; LIST B.

Regarding `Nc1ccc(-c2cccs2)cc1NC(=O)c1ccc2c(c1)cc(C1CC1)n2CCN1CCOCC1` [ACY-1035], the “RFU, ILF3” value was determined as 238.85 RFU.
